Source: patent US9365588B2, “Benzoxazines as modulators of ion channels” (Vertex Pharmaceuticals Incorporated, priority 2011, dated 2016)

Target: human NaV 1.7 (Homo sapiens, UniProt Q15858)
Assay: E-VIPR optical membrane potential assay with electrical stimulation
Assay type: cell-based
Details: sodium channel inhibition; read-out: Binned Activity Data (IC50)
How it was run: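 Membrane-potential read-out: background-subtracted 460 nm/580 nm ratio during a 9 s current-controlled stimulus, 400 Hz scan. Before stimulation, NaV1.7-HEK cells carried coumarin/oxonol dye and compound (final DMSO 0.625%) for 20–35 min at room temperature; tetracaine 125 μM served as positive control.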

human NaV 1.7, sequence (Q15858 whole entry): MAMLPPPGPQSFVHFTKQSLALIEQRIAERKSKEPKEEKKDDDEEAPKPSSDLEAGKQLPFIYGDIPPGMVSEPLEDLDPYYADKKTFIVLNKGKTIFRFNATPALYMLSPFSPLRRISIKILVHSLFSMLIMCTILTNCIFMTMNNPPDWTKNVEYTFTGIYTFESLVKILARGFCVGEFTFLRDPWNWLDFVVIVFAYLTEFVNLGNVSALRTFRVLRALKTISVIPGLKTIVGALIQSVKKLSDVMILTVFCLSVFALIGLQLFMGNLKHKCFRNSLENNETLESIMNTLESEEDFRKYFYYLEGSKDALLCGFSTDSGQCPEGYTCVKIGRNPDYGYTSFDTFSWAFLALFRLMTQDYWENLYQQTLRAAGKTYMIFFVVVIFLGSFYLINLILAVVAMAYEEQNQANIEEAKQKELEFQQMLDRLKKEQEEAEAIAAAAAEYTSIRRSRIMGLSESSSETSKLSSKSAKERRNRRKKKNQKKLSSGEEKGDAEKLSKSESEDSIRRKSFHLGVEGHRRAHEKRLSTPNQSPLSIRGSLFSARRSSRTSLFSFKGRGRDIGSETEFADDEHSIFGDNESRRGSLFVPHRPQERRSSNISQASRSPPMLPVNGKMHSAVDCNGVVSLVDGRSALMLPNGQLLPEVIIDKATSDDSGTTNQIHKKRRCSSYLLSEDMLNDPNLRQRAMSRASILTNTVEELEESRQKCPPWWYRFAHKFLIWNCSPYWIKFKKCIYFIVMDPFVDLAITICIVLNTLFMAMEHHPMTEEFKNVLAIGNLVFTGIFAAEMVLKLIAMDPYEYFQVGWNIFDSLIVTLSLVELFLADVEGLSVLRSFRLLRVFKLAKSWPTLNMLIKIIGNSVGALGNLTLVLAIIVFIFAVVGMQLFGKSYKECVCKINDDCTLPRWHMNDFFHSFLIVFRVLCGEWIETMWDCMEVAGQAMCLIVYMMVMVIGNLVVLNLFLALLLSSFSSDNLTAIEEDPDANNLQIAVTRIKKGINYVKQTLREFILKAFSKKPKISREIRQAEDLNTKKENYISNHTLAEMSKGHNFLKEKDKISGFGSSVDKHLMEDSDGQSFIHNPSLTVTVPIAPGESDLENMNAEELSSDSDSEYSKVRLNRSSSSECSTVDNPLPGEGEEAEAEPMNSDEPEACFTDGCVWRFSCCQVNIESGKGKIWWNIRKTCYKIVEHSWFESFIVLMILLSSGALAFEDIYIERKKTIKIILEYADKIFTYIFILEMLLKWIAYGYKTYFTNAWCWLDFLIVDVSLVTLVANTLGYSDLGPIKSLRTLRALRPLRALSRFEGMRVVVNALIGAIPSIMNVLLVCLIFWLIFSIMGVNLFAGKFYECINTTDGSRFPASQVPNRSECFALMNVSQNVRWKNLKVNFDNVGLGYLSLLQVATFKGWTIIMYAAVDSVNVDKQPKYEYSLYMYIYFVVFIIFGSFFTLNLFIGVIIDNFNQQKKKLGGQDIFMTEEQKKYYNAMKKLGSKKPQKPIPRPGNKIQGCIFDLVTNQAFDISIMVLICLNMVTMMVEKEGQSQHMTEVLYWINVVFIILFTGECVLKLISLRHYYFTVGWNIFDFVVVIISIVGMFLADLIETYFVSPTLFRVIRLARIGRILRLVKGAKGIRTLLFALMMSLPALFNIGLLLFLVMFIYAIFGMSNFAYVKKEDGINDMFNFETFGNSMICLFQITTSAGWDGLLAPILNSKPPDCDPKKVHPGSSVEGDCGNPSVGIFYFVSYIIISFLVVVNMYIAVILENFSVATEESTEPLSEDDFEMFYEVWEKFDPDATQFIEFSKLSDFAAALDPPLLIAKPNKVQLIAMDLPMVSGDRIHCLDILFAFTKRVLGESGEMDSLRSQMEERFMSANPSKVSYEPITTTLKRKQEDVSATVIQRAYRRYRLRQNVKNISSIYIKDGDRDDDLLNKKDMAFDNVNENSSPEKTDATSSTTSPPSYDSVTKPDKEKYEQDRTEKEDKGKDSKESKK

For `COc1ccc(C(=O)N2CCC3(CC2)Oc2ccccc2-c2c3cnn2C)c(OC(F)(F)F)c1` [Compound 664], the IC50 was no more than 2 µM.
`O=C(c1ccc(OCCO)cc1)N1CCC2(CC1)Oc1ccccc1-n1c(C(F)(F)F)ccc12` [Compound 846] gave an IC50 of no more than 2 µM.
In the case of `COc1cc(C(=O)N2CCC3(CC2)Oc2ccccc2-c2c3cnn2C)ccc1O` [Compound 396], the IC50 is reported as no more than 2 µM.
`COc1cc(C(=O)N2CCC3(CC2)Oc2ccccc2-c2c3cnn2C)ccc1S(=O)(=O)C(C)C` [Compound 586] showed an IC50 greater than 5 µM.
Work on `COc1cc(C(=O)N2CCC3(CC2)Oc2ccccc2-n2cccc23)ccc1OC(C)(C)C` [Compound 727] yielded an IC50 of no more than 2 µM.
`Cc1cc(C(=O)N2CCC3(CC2)Oc2ccc(Cl)cc2-c2c3cnn2C)ccc1OC(C)C` [Compound 213] showed an IC50 of no more than 2 µM.
In the case of `CCc1ccc(C(=O)N2C3CCC2CC2(C3)Oc3ccccc3-n3cccc32)cc1OC` (stereo not drawn) [Compound 555], the IC50 is reported as no more than 2 µM.
Molecule `COCCCOc1ccc(C(=O)N2CCC3(CC2)Oc2cc(Cl)ccc2-n2cccc23)cc1C(F)(F)F` [Compound 238] has an IC50 of no more than 2 µM.
Molecule `COc1ccc(C(=O)N2CCC3(CC2)Oc2ccccc2-n2cccc23)cc1S(C)(=O)=O` [Compound 41] has an IC50 of no more than 2 µM.
Molecule `CC(C)Oc1ccc(C(=O)N2CCC3(CC2)Oc2ccccc2-c2c3cnn2C)c(Cl)c1` [Compound 581] has an IC50 of no more than 2 µM.
In the case of `Cn1cccc(C(=O)N2CCC3(CC2)Oc2cc(Cl)ccc2-n2cccc23)c1=O` [Compound 147], the IC50 is reported as no more than 2 µM.
`COc1cc(C(=O)N2CCC3(CC2)Oc2ccccc2-c2c3cnn2C)ccc1S(=O)(=O)C(C)(C)C` [Compound 557] was tested, and the IC50 was no more than 2 µM.
`COc1cc(C(=O)N2CCC3(CC2)Oc2ccccc2-n2cccc23)ccc1C(C)(C)C` [Compound 573] was tested, and the IC50 was no more than 2 µM.
`COc1cc(C(=O)N2CCC3(CC2)Oc2cc(Cl)ccc2-n2cccc23)ccc1OC[C@@H]1COC(C)(C)O1` [Compound 751] gave an IC50 of no more than 2 µM.
`COc1ccc(C(=O)N2CCC3(CC2)Oc2cc(Cl)ccc2-n2c(CO)ccc23)cc1C(F)(F)F` [Compound 300] was tested, and the IC50 was no more than 2 µM.
Work on `C[C@@](O)(CO)c1ccc(C(=O)N2CCC3(CC2)Oc2ccccc2-n2c(C#N)ccc23)cc1` [Compound 406] yielded an IC50 of no more than 2 µM.
Work on `CC(C)Oc1ccc(C(=O)N2CCC3(CC2)Oc2ccc(F)cc2-c2nn(C)cc23)cc1` [Compound 117] yielded an IC50 of no more than 2 µM.
`COc1c(F)cccc1C(=O)N1CCC2(CC1)Oc1ccccc1-n1c(C#N)ccc12` [Compound 24] was tested, and the IC50 was no more than 2 µM.
For `C[C@@](O)(CO)c1ccc(C(=O)N2CCC3(CC2)Oc2ccccc2-n2c(C(F)(F)F)ccc23)cc1` [Compound 640], the IC50 was no more than 2 µM.
`O=C(c1ccc(O[C@H]2CCOC2)c(C(F)(F)F)c1)N1CCC2(CC1)Oc1ccccc1-n1cccc12` [Compound 263] gave an IC50 of no more than 2 µM.
For `CS(=O)(=O)c1cccc(C(=O)N2CCC3(CC2)Oc2cc(Cl)ccc2-n2cccc23)c1` [Compound 513], the IC50 was no more than 2 µM.
`CC(=O)c1ccc2n1-c1ccccc1OC21CCN(C(=O)c2ccc(S(C)(=O)=O)c(C)c2)CC1` [Compound 357] was tested, and the IC50 was no more than 2 µM.
With `Cc1cc(C(=O)N2CCC3(CC2)Oc2cc(Cl)ccc2-n2cccc23)ccc1OCC1CCCO1` (stereo not drawn) [Compound 547] the IC50 was no more than 2 µM.
With `COc1cc(C(=O)N2CCC3(CC2)Oc2ccccc2-c2c3cnn2C)ccc1C(C)(C)CO` [Compound 716] the IC50 was no more than 2 µM.
`COc1cc(C(=O)N2CCC3(CC2)Oc2cc(F)ccc2-n2cccc23)ccc1O[C@H]1CCOC1` [Compound 592] showed an IC50 of no more than 2 µM.
In the case of `CCOc1cc(C(=O)N2CCC3(CC2)Oc2ccccc2-c2nn(C)cc23)ccc1OC` [Compound 98], the IC50 is reported as no more than 2 µM.
`CCc1ccc(C(=O)N2CCC3(CC2)Oc2cc(C(=O)N(C)C)ccc2-n2cccc23)cc1OC` [Compound 863] gave an IC50 of no more than 2 µM.
`Cc1cc(C(C)(C)O)ccc1C(=O)N1CCC2(CC1)Oc1ccccc1-c1c2cnn1C` [Compound 447] gave an IC50 of no more than 2 µM.
`COc1ccc(C(=O)N2CCC3(CC2)Oc2ccccc2-n2c(C(F)(F)F)ccc23)c(F)c1` [Compound 875] was tested, and the IC50 was 2 to 5 µM.
Molecule `Cc1cc(C(=O)N2CCC3(CC2)Oc2cc(Cl)ccc2-n2cccc23)ccc1C#N` [Compound 453] has an IC50 of no more than 2 µM.
Work on `CC(C)CS(=O)(=O)c1ccc(C(=O)N2CCC3(CC2)Oc2ccccc2-n2c(C#N)ccc23)cc1` [Compound 436] yielded an IC50 of no more than 2 µM.
Work on `COc1cc(C(=O)N2CCC3(CC2)Oc2ccccc2-c2nn(C)cc23)ccc1OC(C)C` [Compound 281] yielded an IC50 of no more than 2 µM.
In the case of `N#Cc1ccc2n1-c1ccccc1OC21CCN(C(=O)c2ccc(C3(O)COC3)cc2)CC1` [Compound 864], the IC50 is reported as no more than 2 µM.
Molecule `Cc1cc(C)c(C(=O)N2CCC3(CC2)Oc2cc(Cl)ccc2-n2cccc23)c(=O)[nH]1` [Compound 22] has an IC50 of 2 to 5 µM.
`CC(C)(C)NS(=O)(=O)c1ccc(C(=O)N2CCC3(CC2)Oc2ccccc2-n2c(C#N)ccc23)cc1` [Compound 844] showed an IC50 of no more than 2 µM.
In the case of `Cc1cc(C(=O)N2CCC3(CC2)Oc2cccc(C)c2-n2c(C#N)ccc23)ccc1OC(C)C` [Compound 490], the IC50 is reported as no more than 2 µM.
`Cc1ccc(C(=O)N2CCC3(CC2)Oc2cc(Cl)ccc2-n2cccc23)c(=O)n1C` [Compound 502] gave an IC50 of no more than 2 µM.
Molecule `CCc1ccc(C(=O)N2CCC3(CC2)Oc2cc(C#N)ccc2-n2cccc23)cc1OC` [Compound 511] has an IC50 of no more than 2 µM.
`COc1ccc(C(=O)N2CCC3(CC2)Oc2ccccc2-n2cc(C)cc23)cc1C(F)(F)F` [Compound 161] was tested, and the IC50 was no more than 2 µM.
`CC(C)(C)S(=O)(=O)c1ccc(C(=O)N2CCC3(CC2)Oc2ccccc2-n2c(C#N)ccc23)cc1` [Compound 869] gave an IC50 of no more than 2 µM.
Work on `CC(C)Oc1ccc(C(=O)N2CCC3(CC2)Oc2ccccc2-n2cccc23)cc1C(N)=O` [Compound 517] yielded an IC50 of no more than 2 µM.
Molecule `Cn1ncc2c1-c1ccccc1OC21CCN(C(=O)c2nccc3ccccc23)CC1` [Compound 657] has an IC50 greater than 5 µM.
Molecule `Cc1ccc2c(c1)OC1(CCN(C(=O)c3ccc(OC(C)C)c(CO)c3)CC1)c1ccc(C#N)n1-2` [Compound 375] has an IC50 of no more than 2 µM.
Molecule `COc1c(CO)cccc1C(=O)N1CCC2(CC1)Oc1ccccc1-n1c(C#N)ccc12` [Compound 3] has an IC50 of no more than 2 µM.
`COc1cc(C(F)(F)F)ccc1C(=O)N1CCC2(CC1)Oc1ccccc1-c1c2cnn1C` [Compound 574] gave an IC50 of no more than 2 µM.
`COc1cc(F)cc(C(=O)N2CCC3(CC2)Oc2cc(Cl)ccc2-n2cccc23)c1` [Compound 60] was tested, and the IC50 was no more than 2 µM.
With `COc1cc(C(=O)N2CCC3(CC2)Oc2ccccc2-c2c3cnn2C)ccc1C(C)(C)C` [Compound 429] the IC50 was no more than 2 µM.
`COc1c(F)cccc1C(=O)N1CCC2(CC1)Oc1cc(Cl)ccc1-n1c(C#N)ccc12` [Compound 665] gave an IC50 of no more than 2 µM.
`CNS(=O)(=O)c1ccc(C(=O)N2CCC3(CC2)Oc2ccccc2-n2c(C(F)(F)F)ccc23)cc1` [Compound 675] showed an IC50 of no more than 2 µM.
`COc1ccccc1C(=O)N1CCC2(CC1)Oc1ccccc1-c1c2cnn1C` [Compound 672] gave an IC50 of no more than 2 µM.
In the case of `COCCOc1cc(F)c(C(=O)N2CCC3(CC2)Oc2ccccc2-n2cccc23)cc1OC` [Compound 532], the IC50 is reported as no more than 2 µM.
With `Cn1ncc2c1-c1ccccc1OC21CCN(C(=O)c2cccc3ncn(C)c23)CC1` [Compound 43] the IC50 was 2 to 5 µM.
In the case of `COc1ccc(Cl)cc1C(=O)N1CCC2(CC1)Oc1ccccc1-c1c2cnn1C` [Compound 80], the IC50 is reported as greater than 5 µM.
For `CC(C)(O)c1ccc(C(=O)N2CCC3(CC2)Oc2ccccc2-n2c(C#N)ccc23)cc1CO` [Compound 364], the IC50 was no more than 2 µM.
`N#Cc1cccc(C(=O)N2CCC3(CC2)Oc2cc(Cl)ccc2-n2cccc23)c1` [Compound 272] showed an IC50 greater than 5 µM.
Work on `N#Cc1ccc2n1-c1ccccc1OC21CCN(C(=O)c2ccccc2OC(F)F)CC1` [Compound 285] yielded an IC50 of no more than 2 µM.
`Cn1ncc2c1-c1ccccc1OC21CCN(C(=O)c2cccc3cccnc23)CC1` [Compound 651] showed an IC50 of no more than 2 µM.
For `CC(C)(O)c1ccc(C(=O)N2CCC3(CC2)Oc2ccccc2-n2c(C(F)(F)F)ccc23)cn1` [Compound 455], the IC50 was greater than 5 µM.
Work on `O=C(c1ccc(S(=O)(=O)CCO)cc1)N1CCC2(CC1)Oc1ccccc1-n1c(C(F)(F)F)ccc12` [Compound 794] yielded an IC50 greater than 5 µM.
In the case of `N#Cc1ccc2n1-c1ccccc1OC21CCN(C(=O)c2ccc(O)cc2)CC1` [Compound 671], the IC50 is reported as no more than 2 µM.
With `Cc1cc(C(=O)N2CCC3(CC2)Oc2ccccc2-c2c3cnn2C)ccc1OC(F)(F)F` [Compound 838] the IC50 was 2 to 5 µM.
In the case of `Cc1nc(C(=O)N2CCC3(CC2)Oc2ccccc2-c2c3cnn2C)ccc1OC(C)C` [Compound 834], the IC50 is reported as no more than 2 µM.
`Cn1ncc2c1-c1ccc(F)cc1OC21CCN(C(=O)c2ccccc2OC(F)(F)F)CC1` [Compound 468] was tested, and the IC50 was no more than 2 µM.
For `Cc1cc(C(=O)N2CCC3(CC2)Oc2ccccc2-n2c(C#N)ccc23)ccc1OC(C)C` [Compound 655], the IC50 was no more than 2 µM.
`COc1cc(C(C)(C)O)ccc1C(=O)N1CCC2(CC1)Oc1ccccc1-n1c(C#N)ccc12` [Compound 622] showed an IC50 of no more than 2 µM.
Work on `Cc1cccc(C(=O)N2CCC3(CC2)Oc2ccccc2-c2c3cnn2C)c1C` [Compound 797] yielded an IC50 of no more than 2 µM.
`COc1ccc(C(=O)N2CCC3(CC2)Oc2ccccc2-n2ccc(C)c23)cc1C(F)(F)F` [Compound 181] was tested, and the IC50 was no more than 2 µM.
Work on `COc1c(C)cc(C(=O)N2CCC3(CC2)Oc2ccccc2-c2c3cnn2C)cc1C` [Compound 801] yielded an IC50 of no more than 2 µM.
In the case of `CN(C)CCOc1ccc(C(=O)N2CCC3(CC2)Oc2ccccc2-n2cccc23)cc1C(F)(F)F` [Compound 333], the IC50 is reported as no more than 2 µM.
`Cc1cc(C(F)F)n2ncc(C(=O)N3CCC4(CC3)Oc3ccccc3-n3c(C(F)(F)F)ccc34)c2n1` [Compound 876] showed an IC50 of no more than 2 µM.
With `Cc1cc(C(=O)N2CCC3(CC2)Oc2cccc(C)c2-n2cccc23)ccc1OC(C)C` [Compound 7] the IC50 was no more than 2 µM.
In the case of `COCCOc1ccc(C(=O)N2CCC3(CC2)Oc2ccccc2-c2c3cnn2CCOC)cc1OC` [Compound 469], the IC50 is reported as 2 to 5 µM.
Molecule `Cn1ncc2c1-c1ccccc1OC21CCN(C(=O)c2ccc(OC(F)F)cc2)CC1` [Compound 811] has an IC50 greater than 5 µM.
For `COC[C@@H](C)Oc1ccc(C(=O)N2CCC3(CC2)Oc2ccccc2-n2cccc23)cc1OC` [Compound 449], the IC50 was no more than 2 µM.
`O=C(c1ccc(S(=O)(=O)CC2CCC2)cn1)N1CCC2(CC1)Oc1ccccc1-n1c(C(F)(F)F)ccc12` [Compound 873] gave an IC50 of no more than 2 µM.
